Source: ChEMBL document CHEMBL5291721, “A preclinical secondary pharmacology resource illuminates target-adverse drug reaction associations of marketed drugs” (Nat Commun, 2023)
Blank lines part the entries; values can stand above or below the molecule they belong to.

What was measured:
[1] = target: T1, Retinoic acid receptor alpha (Homo sapiens, UniProt P10276); type: functional, cell-based
T1 sequence (P10276 whole entry): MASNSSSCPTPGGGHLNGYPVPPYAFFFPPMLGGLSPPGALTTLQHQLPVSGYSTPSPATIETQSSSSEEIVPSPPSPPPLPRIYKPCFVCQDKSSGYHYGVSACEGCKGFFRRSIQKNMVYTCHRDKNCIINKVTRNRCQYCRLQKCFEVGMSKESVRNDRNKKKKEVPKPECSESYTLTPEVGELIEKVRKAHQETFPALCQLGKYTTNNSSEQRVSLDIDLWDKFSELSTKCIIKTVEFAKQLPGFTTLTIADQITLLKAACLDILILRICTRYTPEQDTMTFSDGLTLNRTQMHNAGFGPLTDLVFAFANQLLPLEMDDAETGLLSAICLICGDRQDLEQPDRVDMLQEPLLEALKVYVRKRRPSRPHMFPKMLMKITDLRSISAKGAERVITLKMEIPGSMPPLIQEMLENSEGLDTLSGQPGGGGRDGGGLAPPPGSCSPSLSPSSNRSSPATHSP

[2] = target: T1, Retinoic acid receptor alpha; type: functional, cell-based; remark: listed apart in the source
[3] = target: T2, Oxysterols receptor LXR-alpha (Homo sapiens, UniProt Q13133); type: functional
T2 sequence (Q13133 whole entry): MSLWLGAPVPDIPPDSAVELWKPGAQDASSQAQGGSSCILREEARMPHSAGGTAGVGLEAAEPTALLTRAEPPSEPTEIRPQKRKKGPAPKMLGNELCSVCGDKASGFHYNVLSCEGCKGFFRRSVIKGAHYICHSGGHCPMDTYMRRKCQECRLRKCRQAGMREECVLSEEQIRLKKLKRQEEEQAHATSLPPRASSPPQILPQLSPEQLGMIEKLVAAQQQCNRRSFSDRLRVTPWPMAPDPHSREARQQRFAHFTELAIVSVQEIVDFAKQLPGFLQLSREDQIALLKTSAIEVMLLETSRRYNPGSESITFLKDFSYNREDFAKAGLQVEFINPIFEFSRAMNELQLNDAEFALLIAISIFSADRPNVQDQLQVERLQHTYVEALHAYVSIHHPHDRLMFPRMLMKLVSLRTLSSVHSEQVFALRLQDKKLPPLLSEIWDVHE

Glucocorticoid receptor [4] = target: T3, Glucocorticoid receptor (Homo sapiens, UniProt P04150); type: functional
T3 sequence (P04150 whole entry): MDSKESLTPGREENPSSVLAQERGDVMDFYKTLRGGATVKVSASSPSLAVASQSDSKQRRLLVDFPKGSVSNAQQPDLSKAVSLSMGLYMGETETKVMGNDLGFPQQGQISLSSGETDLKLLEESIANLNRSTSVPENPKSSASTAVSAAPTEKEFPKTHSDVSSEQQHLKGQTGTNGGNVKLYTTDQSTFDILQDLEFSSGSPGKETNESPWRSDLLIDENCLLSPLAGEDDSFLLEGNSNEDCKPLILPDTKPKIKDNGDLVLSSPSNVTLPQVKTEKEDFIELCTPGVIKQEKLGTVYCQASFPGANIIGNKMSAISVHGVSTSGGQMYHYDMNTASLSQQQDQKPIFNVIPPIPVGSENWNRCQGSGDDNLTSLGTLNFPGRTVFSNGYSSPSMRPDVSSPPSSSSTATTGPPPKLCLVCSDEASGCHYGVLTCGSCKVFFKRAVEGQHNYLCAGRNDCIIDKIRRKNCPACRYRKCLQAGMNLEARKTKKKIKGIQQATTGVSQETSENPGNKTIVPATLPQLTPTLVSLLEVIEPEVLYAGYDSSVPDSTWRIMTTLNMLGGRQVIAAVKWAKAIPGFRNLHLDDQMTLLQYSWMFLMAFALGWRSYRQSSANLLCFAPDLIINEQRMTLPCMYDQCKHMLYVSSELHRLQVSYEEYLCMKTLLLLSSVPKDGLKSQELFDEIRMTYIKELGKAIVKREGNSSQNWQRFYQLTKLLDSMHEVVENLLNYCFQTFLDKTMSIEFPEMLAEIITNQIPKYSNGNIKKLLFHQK

Glucocorticoid receptor [5] = target: T3, Glucocorticoid receptor; type: functional; remark: listed apart in the source
[6] = target: T4, Type-1 angiotensin II receptor (Homo sapiens, UniProt P30556)
T4 sequence (P30556 whole entry): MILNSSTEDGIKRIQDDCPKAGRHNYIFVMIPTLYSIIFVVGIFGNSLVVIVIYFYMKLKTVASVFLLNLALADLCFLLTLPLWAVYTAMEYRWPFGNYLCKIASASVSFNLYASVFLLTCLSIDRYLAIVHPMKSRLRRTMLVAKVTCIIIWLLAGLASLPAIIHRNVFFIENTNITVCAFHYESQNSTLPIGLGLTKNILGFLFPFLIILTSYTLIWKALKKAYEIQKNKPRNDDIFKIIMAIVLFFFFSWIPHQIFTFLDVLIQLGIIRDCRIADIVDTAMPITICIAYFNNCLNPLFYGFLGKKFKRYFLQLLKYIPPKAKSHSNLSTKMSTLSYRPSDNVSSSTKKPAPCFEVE

D(1A) dopamine receptor = D(1A) dopamine receptor (Homo sapiens, UniProt P21728)
Sequence of D(1A) dopamine receptor (P21728 whole entry): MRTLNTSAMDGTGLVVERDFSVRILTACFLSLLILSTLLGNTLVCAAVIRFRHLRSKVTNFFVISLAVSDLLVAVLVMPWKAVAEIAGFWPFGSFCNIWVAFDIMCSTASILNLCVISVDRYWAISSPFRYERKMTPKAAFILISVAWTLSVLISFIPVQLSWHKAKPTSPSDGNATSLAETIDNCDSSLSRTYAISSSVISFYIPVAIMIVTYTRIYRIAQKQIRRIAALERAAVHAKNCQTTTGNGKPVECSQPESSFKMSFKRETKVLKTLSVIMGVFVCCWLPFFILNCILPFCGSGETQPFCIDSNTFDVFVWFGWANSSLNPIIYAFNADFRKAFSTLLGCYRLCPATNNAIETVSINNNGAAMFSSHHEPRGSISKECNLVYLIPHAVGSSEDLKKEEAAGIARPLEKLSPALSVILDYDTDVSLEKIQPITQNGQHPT

Adenosine receptor A1 = target: T5, Adenosine receptor A1 (Homo sapiens, UniProt P30542)
T5 sequence (P30542 whole entry): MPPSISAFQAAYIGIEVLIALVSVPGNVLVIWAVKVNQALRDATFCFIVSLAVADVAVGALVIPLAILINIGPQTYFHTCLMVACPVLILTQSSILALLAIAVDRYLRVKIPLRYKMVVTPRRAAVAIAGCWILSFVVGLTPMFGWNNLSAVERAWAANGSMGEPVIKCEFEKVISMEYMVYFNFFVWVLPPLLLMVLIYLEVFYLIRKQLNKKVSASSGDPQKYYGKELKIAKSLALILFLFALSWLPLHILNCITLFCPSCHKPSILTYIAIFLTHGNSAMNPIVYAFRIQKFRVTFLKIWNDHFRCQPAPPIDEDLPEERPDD
Note: assay procedure not described here.

AC50 [1]: > 30 µM
AC50 [2]: > 30 µM
AC50 [3]: > 30 µM
Molecule: CC(C)c1c(C(=O)Nc2ccccc2)c(-c2ccccc2)c(-c2ccc(F)cc2)n1CC[C@@H](O)C[C@@H](O)CC(=O)O [ATORVASTATIN]

AC50 (Glucocorticoid receptor [4]): > 30 µM
AC50 (Glucocorticoid receptor [5]): > 30 µM
Molecule: [H]/N=C(/N)c1ccc(NCc2nc3cc(C(=O)N(CCC(=O)O)c4ccccn4)ccc3n2C)cc1 [DABIGATRAN]

Molecule: Cc1c(O)c(=O)ccn1C [DEFERIPRONE]
AC50 [6]: > 100 µM

AC50 (D(1A) dopamine receptor): > 30 µM
AC50 (Adenosine receptor A1): > 30 µM
Molecule: BIVALIRUDIN
